Laboratory results from patent US20240083857A1, “2-Methyl-Quinazolines” (Bayer Pharma Aktiengesellschaft, priority 2017, published 2024).
Like-named read-outs stand apart in the source and are kept apart here.

Experiments:
[1] = target: human SOS1 (loading of human K-Ras^G12C-GDP with fluorescent GTP-analog) (Homo sapiens, UniProt Q07889); test: Biochemical assay 3: K-Ras^G12C activation assay by hSOS1 (HTRF); conditions: no GTP; for IC50: read-out: Assay 3 (KRAS-Activation by SOS no GTP) activity expressed as IC50
[2] = target: Epidermal Growth Factor Receptor (EGFR) (Homo sapiens (Human), UniProt P00533); test: EGFR kinase assay (TR-FRET); format: biochemical
Sequence of Epidermal Growth Factor Receptor (EGFR) (P00533 25-1210): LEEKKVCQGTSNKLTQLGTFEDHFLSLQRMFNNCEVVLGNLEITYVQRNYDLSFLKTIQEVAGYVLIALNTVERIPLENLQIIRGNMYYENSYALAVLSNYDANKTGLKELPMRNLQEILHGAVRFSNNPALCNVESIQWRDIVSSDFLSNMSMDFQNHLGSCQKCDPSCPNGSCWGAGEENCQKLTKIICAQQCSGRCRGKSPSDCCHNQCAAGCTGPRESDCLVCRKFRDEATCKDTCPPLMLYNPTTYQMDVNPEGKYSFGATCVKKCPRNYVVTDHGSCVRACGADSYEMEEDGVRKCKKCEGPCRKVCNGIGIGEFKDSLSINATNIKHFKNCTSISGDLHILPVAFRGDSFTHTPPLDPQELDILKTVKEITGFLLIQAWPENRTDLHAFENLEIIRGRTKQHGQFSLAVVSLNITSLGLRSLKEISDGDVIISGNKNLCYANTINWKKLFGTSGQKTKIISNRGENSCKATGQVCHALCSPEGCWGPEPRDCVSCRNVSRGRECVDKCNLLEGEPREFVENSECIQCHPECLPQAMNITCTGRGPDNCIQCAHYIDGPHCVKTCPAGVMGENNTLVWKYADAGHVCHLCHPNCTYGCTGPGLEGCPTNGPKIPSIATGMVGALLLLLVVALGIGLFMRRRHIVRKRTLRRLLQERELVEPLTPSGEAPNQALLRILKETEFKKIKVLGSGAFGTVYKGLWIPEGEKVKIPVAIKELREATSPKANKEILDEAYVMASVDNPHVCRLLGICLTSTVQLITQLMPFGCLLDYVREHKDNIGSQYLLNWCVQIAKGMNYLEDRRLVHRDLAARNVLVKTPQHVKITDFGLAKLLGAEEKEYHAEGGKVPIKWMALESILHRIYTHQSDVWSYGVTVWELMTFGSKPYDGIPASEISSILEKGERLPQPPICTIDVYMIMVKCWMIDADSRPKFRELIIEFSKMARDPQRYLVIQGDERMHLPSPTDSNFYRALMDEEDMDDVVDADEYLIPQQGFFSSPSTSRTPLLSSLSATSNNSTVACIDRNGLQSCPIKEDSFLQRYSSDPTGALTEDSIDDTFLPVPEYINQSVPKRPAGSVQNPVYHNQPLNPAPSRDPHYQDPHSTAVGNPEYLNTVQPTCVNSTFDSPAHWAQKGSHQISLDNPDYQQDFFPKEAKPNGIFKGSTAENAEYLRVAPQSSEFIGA
From the text: EGFR inhibitory activity of compounds of the present invention was quantified employing the TR-FRET based EGFR assay as described in the following paragraphs.
Epidermal Growth Factor Receptor (EGFR) affinity purified from human carcinoma A431 cells (Sigma-Aldrich, #E3641) was used as kinase. As substrate for the kinase reaction the biotinylated peptide biotin-Ahx-[…] (SEQ ID NO 5) (C-terminus in amid form) was used which can be purchased e.g. form the company Biosyntan GmbH (Berlin-Buch, Germany).
For the assay 50 nL of a 100 fold concentrated solution of the test compound in DMSO was pipetted into a black low volume 384 well microtiter plate (Greiner Bio-One, Frickenhausen, Germany), 2 μL of a solution of EGFR in aqueous assay buffer [50 mM Hepes/HCl pH 7.0, 1 mM MgCl2, 5 mM MnCl2, 0.5 mM activated sodium ortho-vanadate, 0.005% (v/v) Tween-20]were added and the mixture was incubated for 15 min at 22° C. to allow pre-binding of the test compounds to the enzyme before the start of the kinase reaction. […] The concentration of EGFR was adjusted depending of the activity of the enzyme lot and was chosen appropriate to have the assay in the linear range, typical concentration were about 3 U/ml. The reaction was stopped by the addition of 5 μl of a solution of HTRF detection reagents (0.1 μM streptavidine-XL665 [Cis Biointernational] and 1 nM PT66-Tb-Cryptate, an terbium-cryptate labelled anti-phospho-tyrosine antibody from Cis Biointernational [instead of the PT66-Tb-cryptate PT66-Eu-Chelate from Perkin Elmer can also be used]) in an aqueous EDTA-solution (80 mM EDTA, 0.2% (w/v) bovine serum albumin in 50 mM HEPES pH 7.5).
The resulting mixture was incubated 1 h at 22° C. to allow the binding of the biotinylated phosphorylated peptide to the streptavidine-XL665 and the PT66-Eu-Chelate. Subsequently the amount of phosphorylated substrate was evaluated by measurement of the resonance energy transfer from the PT66-Tb-Cryptate to the streptavidine-XL665. Therefore, the fluorescence emissions at 620 nm and 665 nm after excitation at 337 nm were measured in a HTRF reader, e.g. a Pherastar (BMG Labtechnologies, Offenburg, Germany) or a Viewlux (Perkin-Elmer). The ratio of the emissions at 665 nm and at […] was taken as the measure for the amount of phosphorylated substrate.

[3] = target: K-Ras^G12C : hSOS1 interaction (Homo sapiens, UniProt Q07889); test: Biochemical assay 1: K-Ras^G12C interaction assay with hSOS1 (HTRF); format: binding
[4] = target: human SOS1 (nucleotide exchange of K-Ras^G12C) (Homo sapiens, UniProt Q07889); test: Biochemical assay 2: K-Ras^G12C activation assay by hSOS1 at high GTP concentration (HTRF); conditions: E-notation values; unit inferred; 50 μM GTP; read-out: Assay 2 (KRAS-Activation, high GTP) IC50
[5] = values given in μM, read-out: EGFR kinase inhibition IC50
[6] = read-out: Assay 1 (KRAS-SOS Interaction) activity expressed as IC50

Row | SMILES | inhibition at 20 µM ([1]; read-out: Assay 3 (KRAS-Activation by SOS no GTP) activity expressed as % inhibition at 20 μM, at 20 μM) [%] | IC50 [2, 5] [µM] | IC50 [3, 6] [nM] | IC50 [1] [nM] | IC50 [4] [nM] | IC50 ([2]; E-notation values, unit inferred, read-out: EGFR-assay IC50) [µM] | IC50 ([3]; E-notation values, unit inferred, read-out: Assay 1 (KRAS-SOS interaction) IC50) [nM]
1 | COc1cc2nc(C)nc(NC(C)c3ccc(Br)o3)c2cc1OC (stereo not drawn) [Example 208, N-[1-(5-bromofuran-2-yl)ethyl]-6,7-dimethoxy-2-methylquinazolin-4-amine] | 47 | > 20 | 5970 |  |  |  | 
2 | COc1cc2nc(C)nc(NC(C)c3ccc(Br)s3)c2cc1OC (stereo not drawn) [Example 209, N-[1-(5-bromothiophen-2-yl)ethyl]-6,7-dimethoxy-2-methylquinazolin-4-amine] |  | > 20 | 1080 | 4950 |  |  | 
3 | COc1cc2nc(C)nc(NC(C)c3cccc4ncccc34)c2cc1OC (stereo not drawn) [Example 212, 6,7-dimethoxy-2-methyl-N-[1-(quinolin-5-yl)ethyl]quinazolin-4-amine] |  | > 20 | 646 | 2640 |  |  | 
4 | Cc1nc(NC(C)c2ccc(-c3ccccc3CN(C)C)s2)c2cc([N+](=O)[O-])ccc2n1 (stereo not drawn) [Example 421, N-[1-(5-{2-[(dimethylamino)methyl]phenyl}thiophen-2-yl)ethyl]-2-methyl-6-nitroquinazolin-4-amine] |  |  |  |  | 222 | > 20 | 145
